Among the data in the OPERA property sets (Mansouri et al. 2018) are solubility values, retold here.

In brackets after ≈: the same amount, converted by molar mass.

The conditions of the first data set: 25 °C.
As usually defined, the solubility is how much of the substance goes into solution per volume. A high value points to a readily soluble substance. Take `O=S(=O)(Cl)c1ccc(I)cc1`: the solubility came out at 0.0539 mM (≈ 16.3 µg/mL).

The compound `O=C(O)c1cccc(Cl)c1[N+](=O)[O-]` yielded a solubility of 2.33 mM (≈ 470 µg/mL).

The compound `CCCC(C(=O)O)C(=O)O` came in with a solubility of 4790 mM (≈ 700000 µg/mL).

On to `CCC(CC)CO`, for which the solubility is 39.1 mM (≈ 4000 µg/mL).

`CCCCCCCCN`: the solubility is 1.55 mM (≈ 200 µg/mL).

Consider `Clc1ccc2c(c1)Oc1cc(Cl)ccc1O2`, for which the solubility was 6.6e-05 mM (≈ 0.0167 µg/mL).

For `CCCCCCCCCC`, the solubility was found to be 0.000365 mM (≈ 0.052 µg/mL).

The compound `c1ccc2c(c1)Oc1ccccc1O2` displayed a solubility of 0.00489 mM (≈ 0.901 µg/mL).

`CC(=O)Oc1ccccc1C(=O)O`: the solubility worked out at 25.5 mM (≈ 4600 µg/mL).

Consider `C[C@@H]1CC[C@@]2(OC1)O[C@H]1C[C@H]3[C@@H]4CC=C5C[C@@H](O)CC[C@]5(C)[C@H]4CC[C@]3(C)[C@H]1[C@@H]2C`, for which the solubility was 4.82e-05 mM (≈ 0.02 µg/mL).

Regarding `CCCCCCCBr`, the solubility was 0.0371 mM (≈ 6.64 µg/mL).

Regarding `CCOc1ccccc1`, the solubility worked out at 4.66 mM (≈ 569 µg/mL).

Regarding `CC1CCCCC1`, the solubility was 0.152 mM (≈ 15 µg/mL).

The compound `Clc1cccc(-c2cccc(Cl)c2)c1` showed a solubility of 0.00159 mM (≈ 0.355 µg/mL).

For `ClC1=C(Cl)[C@]2(Cl)[C@H]3[C@H]([C@@H]4C=C[C@H]3C4)[C@@]1(Cl)C2(Cl)Cl` (racemic), the solubility was found to be 4.66e-05 mM (≈ 0.017 µg/mL).

`CCC1(C2=C[C@H]3CC[C@@H](C2)C3)C(=O)NC(=O)NC1=O` returned a solubility of 1.7 mM (≈ 446 µg/mL).

On to `CCCCC1(CC)C(=O)NC(=O)NC1=O`, for which the solubility is 23 mM (≈ 4880 µg/mL).

As to `CC1CCCC(C)(C)C1` (centres undefined), the solubility is 0.014 mM (≈ 1.77 µg/mL).

In turn, `CCCCCO` showed a solubility of 250 mM (≈ 22000 µg/mL).

Consider `CCC#CCC`, for which the solubility came out at 6.8 mM (≈ 559 µg/mL).

As to `COc1ccc2c(c1)N(C[C@H](C)CN(C)C)c1ccccc1S2`, the solubility was 0.0609 mM (≈ 20 µg/mL).

Turning to `O=C(O)COc1c(Cl)ccc(Cl)c1Cl`, the solubility came to 2.4 mM (≈ 613 µg/mL).

`CCCC(C)=O`: the solubility is 499 mM (≈ 43000 µg/mL).

`CCC(C)(C)C` yielded a solubility of 0.214 mM (≈ 18.4 µg/mL).

As for `CC1(C)[C@H](C(=O)O)CC[C@]1(C)C(=O)O`, the solubility is 38 mM (≈ 7600 µg/mL).

As to `CC(=O)Nc1ccc(OC(C)=O)cc1`, the solubility turned out to be 12.4 mM (≈ 2390 µg/mL).

In the case of `Cc1c(N)c(=O)n(-c2ccccc2)n1C`, the solubility is 3580 mM (≈ 728000 µg/mL).

As for `CCCCC(C)O` (centres undefined), the solubility was 134 mM (≈ 13700 µg/mL).

Compound `O=C(O)c1ccccc1F` showed a solubility of 51.4 mM (≈ 7200 µg/mL).

Take `Clc1cccc2c1Oc1ccccc1O2`: the solubility was determined as 0.00191 mM (≈ 0.417 µg/mL).

Turning to `CCCC(=O)CC`, the solubility amounted to 147 mM (≈ 14700 µg/mL).

Regarding `Clc1cccc(-c2cc(Cl)ccc2Cl)c1`, the solubility turned out to be 0.000982 mM (≈ 0.253 µg/mL).

In turn, `O=C(O)COc1ccc(Cl)cc1` displayed a solubility of 5.13 mM (≈ 957 µg/mL).

In turn, `Cc1cc(=O)[nH]c(=S)[nH]1` showed a solubility of 3.75 mM (≈ 533 µg/mL).

For the compound `C#CCCCCCC#C`, the solubility was 1.04 mM (≈ 125 µg/mL).

Turning to `COc1ccc(C=O)cc1`, the solubility was 31.5 mM (≈ 4290 µg/mL).

Take `O=C(O)c1ccc([N+](=O)[O-])c([N+](=O)[O-])c1`: the solubility amounted to 31.6 mM (≈ 6700 µg/mL).

The compound `CCC(O)C(C)(C)C` (centres undefined) displayed a solubility of 70.6 mM (≈ 8200 µg/mL).

On to `c1cc2cccc3c4cccc5cccc(c(c1)c23)c54`, for which the solubility was 1.59e-06 mM (≈ 0.0004 µg/mL).

The compound `C=CCc1ccc(O)c(OC)c1` had a solubility of 27.4 mM (≈ 4500 µg/mL).

`Clc1ccc(-c2c(Cl)cc(Cl)cc2Cl)cc1` came in with a solubility of 0.000312 mM (≈ 0.0911 µg/mL).

In turn, `Cc1c(C(=O)O)c(O)cc2c1C(=O)c1c(O)c([C@@H]3O[C@H](CO)[C@@H](O)[C@H](O)[C@H]3O)c(O)c(O)c1C2=O` showed a solubility of 2.64 mM (≈ 1300 µg/mL).

Take `CCC(C)(C)c1ccc(O)cc1`: the solubility stood at 1.02 mM (≈ 168 µg/mL).

For `CC(=O)OCC(=O)[C@@]1(O)CC[C@H]2[C@@H]3CCC4=CC(=O)CC[C@]4(C)[C@H]3C(=O)C[C@@]21C`, the solubility came out at 0.0497 mM (≈ 20 µg/mL).

`Nc1ccc(S(=O)(=O)Nc2ncccn2)cc1` returned a solubility of 0.308 mM (≈ 77 µg/mL).

In turn, `C=CCCBr` displayed a solubility of 5.66 mM (≈ 764 µg/mL).

On to `O=C(O)c1cc(=O)cc(C(=O)O)o1`, for which the solubility was 77.7 mM (≈ 14300 µg/mL).

For `CCC(C)(C)CC`, the solubility turned out to be 0.0591 mM (≈ 5.92 µg/mL).

`CNC(=O)ON=C(C)SC` yielded a solubility of 358 mM (≈ 58000 µg/mL).

In turn, `CCOC(=O)CC#N` registered a solubility of 177 mM (≈ 20000 µg/mL).

As for `CCCC(C)(C)C`, the solubility was found to be 0.0439 mM (≈ 4.4 µg/mL).

Compound `Oc1c(Cl)cc(Cl)c(Cl)c1Cc1c(O)c(Cl)cc(Cl)c1Cl` had a solubility of 0.344 mM (≈ 140 µg/mL).

For the compound `C=C(C)C`, the solubility worked out at 4.69 mM (≈ 263 µg/mL).

`CC(C)(C)C(=O)OCC(=O)[C@@]1(O)CC[C@H]2[C@@H]3CCC4=CC(=O)C=C[C@]4(C)[C@H]3[C@@H](O)C[C@@]21C` registered a solubility of 0.0261 mM (≈ 11.6 µg/mL).

As for `Cc1ccccc1O`, the solubility amounted to 239 mM (≈ 25900 µg/mL).

Staying with this data set, now noted: 27 °C.
`C#C[C@]1(O)CC[C@H]2[C@@H]3CCC4=CC(=O)CC[C@]4(C)[C@H]3CC[C@@]21C` came in with a solubility of 0.0022 mM (≈ 0.687 µg/mL).

`Cc1cc2c3ccccc3ccc2c2ccccc12` yielded a solubility of 0.000268 mM (≈ 0.065 µg/mL).

The same data set, now with this note: 28 °C.
In the case of `CCOC(=O)[C@H](Cc1ccc(O)cc1)NC(C)=O`, the solubility was determined as 13.8 mM (≈ 3480 µg/mL).

Compound `COc1ccc(C[C@H]2NC[C@H](O)[C@H]2OC(C)=O)cc1` displayed a solubility of 24.7 mM (≈ 6550 µg/mL).

The same data set, now with this note: 30 °C.
As to `COP1(=S)OCc2ccccc2O1` (centres undefined), the solubility is 0.268 mM (≈ 58 µg/mL).

As for `CN1c2ccccc2Sc2ccc(CC(=O)O)cc21`, the solubility is 0.114 mM (≈ 31 µg/mL).

As for `COc1cnc(NS(=O)(=O)c2ccc(N)cc2)nc1`, the solubility worked out at 2.6 mM (≈ 730 µg/mL).

Regarding `COC(=O)[C@H]1[C@H]2C[C@@H]3c4[nH]c5cc(OC)ccc5c4CCN3C[C@H]2C[C@@H](OC(=O)c2cc(OC)c(OC)c(OC)c2)[C@@H]1OC`, the solubility was found to be 0.12 mM (≈ 73 µg/mL).

The compound `COP(=S)(OC)Oc1ccc(C#N)cc1` returned a solubility of 0.189 mM (≈ 46 µg/mL).
